According to patent US20070167499A1, “Biaryl linked hydroxamates: preparation and pharmaceutical applications” (A*BIO Pte Ltd., priority 2003, published 2007):

Tested on: Ramos Burkitt-lymphoma cells
Test: Apoptosis assay (Annexin V / PI flow cytometry)
Assay type: cell-based, human
Details: 48 h after treatment with 10 μM
Text: In various therapies such as for proliferative disorders like cancer, the selective induction of apoptosis in proliferating cells such as tumor cells is one of the desirable approaches, and can be mediated by treatment with various anti-proliferative compounds [Blagosklonny MV, Oncogene, 23(16): 2967 (2004); Kaufmann and Eamshaw, Exp Cell Res. 256(1): 42-9 (2000)]. Programmed cell death or apoptosis is the cellular response to stress factors such as DNA damage introduced during conventional anti-cancer treatment. The concerted sequence of events during apoptosis, clearly differentiate this pathway from a non-coordinated form of cell death called necrosis. During the course of apoptosis, characteristic phenotypical cellular changes occur, which include the condensation of chromatin, the shrinkage of cells and finally the fragmentation of chromosomal DNA. One of the very early change caused by apoptotic events occurs in the phospholipids bilayer of the plasma membrane. The phospholipid phosphatidylserine is translocated from the inner to the outer side of the plasma-membrane and, as a result, is exposed to the extracellular space. One way of detecting early apoptotic cells is to determine the amount of phosphatidyl-serine at the extracellular side of the plasma-membrane which is accomplished by the standard flow cytometric method of Annexin V staining. The phospholipids recognizing protein Annexin V binds with high affinity to these inverted and exposed phosphatidyl-serines.
The ability of the compounds in this invention to induce apoptosis was tested in Ramos Burkitt-lymphoma cells. This cell line is one of the gold standard cell lines commonly used as a tissue culture model for B cell lymphoma. Representative compounds as indicated below were added to 80,000 cells per 500 μl growth medium (RPMI1640 medium supplemented with 2 mM L-Glutamine, 10% heat-inactivated FBS, 1 mM Na-Pyruvate and 10 mM HEPES) in 24 well format at various concentrations. Two days after the start of treatment, cells were collected and subjected to the Annexin V staining protocol following the instructions of the manufacturer (BD Biosciences). By using propidium iodide (PI) as a viability control, cells that stain positive for Annexin V, but negative for PI, are undergoing apoptosis.

SMILES: O=C(Cc1ccc(-c2csc(NC(=O)Cc3ccccc3)n2)s1)NO [Example 1, N-Hydroxy-2-[5-(2-phenylacetylamino-thiazol-4-yl)-thiophen-2-yl]-acetamide]
- % cells in late apoptosis (Ramos): 76%
